This passage reports IC50 results from BindingDB's records for doi:10.1016/s0960-894x(02)00137-3 (Kingston University, 2002).

This test addresses T1, Steryl-sulfatase (Homo sapiens, UniProt P08842).
T1 sequence (P08842 whole entry): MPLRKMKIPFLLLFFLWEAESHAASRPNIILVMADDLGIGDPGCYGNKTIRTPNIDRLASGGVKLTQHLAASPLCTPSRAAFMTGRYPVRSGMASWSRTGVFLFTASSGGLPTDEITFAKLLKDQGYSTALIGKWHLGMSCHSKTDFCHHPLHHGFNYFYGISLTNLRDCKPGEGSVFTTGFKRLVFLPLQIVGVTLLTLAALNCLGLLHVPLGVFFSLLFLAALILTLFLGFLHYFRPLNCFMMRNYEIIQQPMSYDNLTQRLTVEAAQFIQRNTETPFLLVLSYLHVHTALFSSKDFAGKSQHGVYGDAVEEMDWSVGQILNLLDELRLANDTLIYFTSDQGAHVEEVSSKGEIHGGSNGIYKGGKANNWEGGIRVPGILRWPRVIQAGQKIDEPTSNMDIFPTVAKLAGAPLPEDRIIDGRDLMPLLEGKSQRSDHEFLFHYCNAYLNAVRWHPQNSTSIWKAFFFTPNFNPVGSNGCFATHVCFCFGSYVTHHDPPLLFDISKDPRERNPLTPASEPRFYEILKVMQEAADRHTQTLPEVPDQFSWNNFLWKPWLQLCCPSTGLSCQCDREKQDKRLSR
The test is described as follows: ChEBML_68022. An excerpt: In vitro inhibition of estrone sulfatase.
The IC50 is the concentration that inhibits the measured activity by half. Take `NS(=O)(=O)Oc1cccc(I)c1` [Sulfamic acid 3-iodo-phenyl ester]: the IC50 amounted to 120 µM.
The result for `NS(=O)(=O)Oc1ccc(F)cc1` [4-fluorophenyl sulfamate] reads 537 µM.
Turning to `NS(=O)(=O)Oc1ccc(I)cc1` [Sulfamic acid 4-iodo-phenyl ester], inhibition was half-maximal at 560 µM (IC50).
Molecule `Cc1ccc(OS(N)(=O)=O)cc1` [Sulfamic acid p-tolyl ester] gave an IC50 above 10000 µM.
The result for `Cc1cccc(OS(N)(=O)=O)c1` [Sulfamic acid m-tolyl ester] reads 2090 µM; that for `NS(=O)(=O)Oc1ccccc1`, above 10000 µM.
Under `NS(=O)(=O)OCC(Cl)(Cl)Cl` [Sulfamic acid 2,2,2-trichloro-ethyl ester] stands 750 µM.
